Measured values as given in ChEMBL document CHEMBL1201862, “PubChem BioAssay data set” (2004).
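Each compound was tested at five concentrations against cells in 96-well plates for 48 hours. The concentration for 50% growth inhibition is given as GI50.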 Calls of active or inactive are those of the source. Rule as the data show it: active = GI50 up to about 1.1 µM and inactive = higher.

Experiments:
Assay in all cases: NCI-60 cell line screen, 48 h
[1] = test system: TK-10
[2] = test system: RPMI-8226
[3] = test system: OVCAR-5
[4] = test system: M14
[5] = test system: M19-MEL
[6] = test system: HCT-116
[7] = test system: NCI-H460
[8] = test system: DLD-1
[9] = test system: UO-31
[10] = test system: SNB-75
[11] = test system: HOP-62
[12] = test system: LXFL 529
[13] = test system: HT-29
[14] = test system: UACC-62
[15] = test system: SF-295
[16] = test system: NCI-H522
[17] = test system: MOLT-4
[18] = test system: KM-20L2
[19] = test system: SW-620
[20] = test system: HOP-92
[21] = test system: UACC-257
[22] = test system: HCT-15
[23] = test system: SF-539
[24] = test system: EKVX
[25] = test system: IGROV-1
[26] = test system: SK-MEL-28
[27] = test system: COLO 205
[28] = test system: KM12
[29] = test system: K562
[30] = test system: SK-MEL-5
[31] = test system: DMS-273
[32] = test system: OVCAR-8
[33] = test system: HOP-18
[34] = test system: OVCAR-3
[35] = test system: SF-268
[36] = test system: NCI-H23
[37] = test system: HL-60
[38] = test system: NCI-H226
[39] = test system: HCC 2998
[40] = test system: LOX IMVI
[41] = test system: A549
[42] = test system: OVCAR-4
[43] = test system: SN12C
[44] = test system: SK-OV-3
[45] = test system: SNB-19
[46] = test system: CCRF-CEM
[47] = test system: SNB-78
[48] = test system: A498
[49] = test system: SK-MEL-2
[50] = test system: SR
[51] = test system: ACHN
[52] = test system: U-251
[53] = test system: CAKI-1
[54] = test system: 786-0
[55] = test system: DMS-114
[56] = test system: Malme-3M
[57] = test system: RXF 393
[58] = test system: XF498
[59] = test system: DU-145
[60] = test system: MDA-MB-435
[61] = test system: PC-3
[62] = test system: BT-549
[63] = test system: Hs-578T
[64] = test system: NCI/ADR-RES
[65] = test system: MDA-MB-231
[66] = test system: MCF7
[67] = test system: MDA-N

## CC1=C(C(=O)NCc2ccccc2)C(c2ccccc2O)C(C(=O)NCc2ccccc2)=C(C)N1
[1]
  GI50: 17900 nM (inactive)
[2]
  GI50: 29600 nM (inactive)
[3]
  GI50: 18900 nM (inactive)
[4]
  GI50: 17900 nM (inactive)
[5]
  GI50: 18200 nM (inactive)
[6]
  GI50: 14400 nM (inactive)
[7]
  GI50: 18400 nM (inactive)
[8]
  GI50: 15100 nM (inactive)
[9]
  GI50: 16700 nM (inactive)
[10]
  GI50: 23600 nM (inactive)
[11]
  GI50: 19900 nM (inactive)
[12]
  GI50: 15000 nM (inactive)
[13]
  GI50: 19500 nM (inactive)
[14]
  GI50: 16100 nM (inactive)
[15]
  GI50: 21100 nM (inactive)
[16]
  GI50: 16500 nM (inactive)
[17]
  GI50: 31300 nM (inactive)
[18]
  GI50: 19900 nM (inactive)
[19]
  GI50: 17700 nM (inactive)
[20]
  GI50: 22400 nM (inactive)
[21]
  GI50: 16100 nM (inactive)
[22]
  GI50: 13600 nM
[23]
  GI50: 18400 nM (inactive)
[24]
  GI50: 22200 nM (inactive)
[25]
  GI50: 19500 nM (inactive)
[26]
  GI50: 18000 nM (inactive)
[27]
  GI50: 16900 nM (inactive)
[28]
  GI50: 16600 nM (inactive)
[29]
  GI50: 36100 nM (inactive)
[30]
  GI50: 15000 nM (inactive)
[31]
  GI50: 14600 nM (inactive)
[32]
  GI50: 18700 nM (inactive)
[33]
  GI50: 23900 nM (inactive)
[34]
  GI50: 17400 nM (inactive)
[35]
  GI50: 22900 nM (inactive)
[36]
  GI50: 17100 nM (inactive)
[37]
  GI50: 17300 nM (inactive)
[38]
  GI50: 16600 nM (inactive)
[39]
  GI50: 21000 nM (inactive)
[40]
  GI50: 14500 nM (inactive)
[41]
  GI50: 20800 nM (inactive)
[42]
  GI50: 17000 nM (inactive)
[43]
  GI50: 17100 nM (inactive)
[44]
  GI50: 26100 nM (inactive)
[45]
  GI50: 19200 nM (inactive)
[46]
  GI50: 26500 nM (inactive)
[47]
  GI50: 27900 nM (inactive)
[48]
  GI50: 19000 nM (inactive)
[49]
  GI50: 15400 nM (inactive)
[50]
  GI50: 28900 nM (inactive)
[51]
  GI50: 16400 nM (inactive)
[52]
  GI50: 15500 nM (inactive)
[53]
  GI50: 18300 nM (inactive)
[54]
  GI50: 19300 nM (inactive)
[55]
  GI50: 18200 nM (inactive)
[56]
  GI50: 15700 nM (inactive)
[57]
  GI50: 17900 nM (inactive)
[58]
  GI50: 17000 nM (inactive)

## CCOC(=O)Nc1cc2c(c(N)n1)N=C(c1ccccc1)[C@H](C)N2 [MIVOBULIN ISETHIONATE]
[1]
  GI50: 2.73 nM (active)
[2]
  GI50: 0.215 nM (active)
[59]
  GI50: < 0.1 nM (active)
[3]
  GI50: 23000 nM (inactive)
[4]
  GI50: 0.11 nM (active)
[5]
  GI50: < 0.1 nM (active)
[6]
  GI50: < 0.1 nM (active)
[7]
  GI50: < 0.1 nM (active)
[8]
  GI50: < 0.1 nM (active)
[9]
  GI50: 0.303 nM (active)
[10]
  GI50: 0.215 nM (active)
[60]
  GI50: < 0.1 nM (active)
[11]
  GI50: 56.2 nM (active)
[12]
  GI50: < 0.1 nM (active)
[61]
  GI50: < 0.1 nM (active)
[13]
  GI50: < 0.1 nM (active)
[62]
  GI50: 10 nM (active)
[14]
  GI50: < 0.1 nM (active)
[15]
  GI50: < 0.1 nM (active)
[16]
  GI50: < 0.1 nM (active)
[17]
  GI50: < 0.1 nM (active)
[18]
  GI50: < 0.1 nM (active)
[19]
  GI50: < 0.1 nM (active)
[20]
  GI50: 10 nM (active)
[21]
  GI50: 2.15 nM (active)
[22]
  GI50: 32.4 nM
[24]
  GI50: 65.3 nM (active)
[63]
  GI50: < 0.1 nM (active)
[25]
  GI50: < 0.1 nM (active)
[27]
  GI50: < 0.1 nM (active)
[28]
  GI50: < 0.1 nM (active)
[29]
  GI50: < 0.1 nM (active)
[30]
  GI50: < 0.1 nM (active)
[31]
  GI50: < 0.1 nM (active)
[32]
  GI50: < 0.1 nM (active)
[33]
  GI50: 641 nM (active)
[34]
  GI50: 0.468 nM (active)
[35]
  GI50: < 0.1 nM (active)
[36]
  GI50: 1.61 nM (active)
[37]
  GI50: < 0.1 nM (active)
[64]
  GI50: < 0.1 nM (active)
[38]
  GI50: 2.15 nM (active)
[39]
  GI50: < 0.1 nM (active)
[40]
  GI50: < 0.1 nM (active)
[41]
  GI50: < 0.1 nM (active)
[42]
  GI50: 3.63 nM (active)
[43]
  GI50: 47.5 nM (active)
[44]
  GI50: 17400 nM (inactive)
[65]
  GI50: < 0.1 nM (active)
[45]
  GI50: < 0.1 nM (active)
[46]
  GI50: < 0.1 nM (active)
[47]
  GI50: 10 nM (active)
[48]
  GI50: 29.9 nM (active)
[49]
  GI50: < 0.1 nM (active)
[50]
  GI50: < 0.1 nM (active)
[51]
  GI50: < 0.1 nM (active)
[66]
  GI50: < 0.1 nM (active)
[52]
  GI50: 36.9 nM (active)
[53]
  GI50: < 0.1 nM (active)
[67]
  GI50: < 0.1 nM (active)
[54]
  GI50: 2.15 nM (active)
[55]
  GI50: < 0.1 nM (active)
[56]
  GI50: < 0.1 nM (active)
[57]
  GI50: < 0.1 nM (active)
[58]
  GI50: < 0.1 nM (active)
